Reference: patent publication US12448366B2, “Solid forms of pralsetinib” (Rigel Pharmaceuticals, Inc., priority 2020, dated 2025)
“Also recorded” adds a separate entry of the source.

Experiments:
Format in all cases: physicochemical
[1] = Antisolvent crystallization (Example 2D), XRPD; details: for XRPD results of direct antisolvent experiments: direct addition; for XRPD results of reverse antisolvent experiments: reverse addition
Experimental: Antisolvent crystallization was done in various solvent systems. First, about 30 mg solid free base of Compound (I) characterized by XRPD Pattern C (solid form C) was dissolved in solvent. Then antisolvent crystallization was done either using the direct or reverse addition method. For direct addition, antisolvent was added dropwise to the solution until a slurry was formed. For reverse addition, solution was added all at once to the antisolvent. The volume of antisolvent used was 4 times the volume of solvent required to dissolve the solid. For example, if 0.15 mL solvent was required to dissolve the solid then the solution was added at once to […] antisolvent. Once solids were formed, the slurries were filtered and solids were recovered for XRPD analysis.

[2] = Cooling crystallization (Example 2C), XRPD; details: for XRPD Pattern (fast cool): crash cooling from 50° C. to 0° C.; for XRPD Pattern (slow cool): from 50° C. at 5° C. per hour
Experimental: Cooling crystallization was done in a range of solvent systems. Two cooling regimes were used: cooling from 50° C. at 5° C. per hour, and crash cooling from 50° C. to 0° C. In all experiments, solids were completely dissolved before cooling. […] Cooling in THF gave two low crystallinity solids, Solid form N (fast cooling), and solid form I (slow cooling).

[3] = Evaporative crystallization (Example 2B), XRPD; details: evaporative crystallization at 50° C., to be confirmed by other analytical methods
Experimental: Supernatant from some slurries was recovered for evaporative crystallization. The solutions were evaporated to dryness at 50° C. in atmospheric pressure and then placed at 50° C. under vacuum for 1.5 hours. […] It is possible that these solids were solvates with structures that collapsed to amorphous solids upon drying. Where two experiment numbers are indicated, evaporation was at different concentration.

[4] = Drying of free base solid forms (XRPD); details: 50° C., (under vacuum where stated)
[5] = Thermal treatment in DSC followed by XRPD (Example 2G); details: 150° C.
Excerpt: Select solids were used for thermal treatment in DSC. Solids were heated to specified temperature and then cooled back to room temperature for analysis by XRPD.

[6] = Short term slurries (Example 2A), XRPD; details: short term slurry, starting solids Pattern C
Experimental: Short term slurries were carried out at two temperature in 15 solvents during the initial screening. Starting solids were Pattern C. Most solids were Pattern C after slurrying. Solids converted to Pattern A in EtOH, IPA, acetone, and acetonitrile at both temperatures.
The upper phase was sticky and when filtered yielded a low amount of a solid form characterized by XRPD Pattern H.

[7] = Humidity exposure, 75% relative humidity at 40° C. for one week, XRPD; details: one week / 7 days, XRPD
[8] = Dynamic vapor sorption (DVS); details: for XRPD / form stability after DVS humidity cycling: XRPD before and after DVS
Experimental: Dynamic Vapor Sorption (DVS) was done using a DVS Intrinsic 1. The sample is loaded into a sample pan and suspended from a microbalance. A typical sample mass for DVS measurement is 25 mg. Nitrogen gas bubbled through distilled water provides the desired relative humidity. A typical measurement comprises the steps: • 1—Equilibrate at 50% RH • 2—50% to 2%. (50%, 40%, 30%, 20%, 10% and 2%) • a. Hold minimum of 5 mins and maximum of 60 minutes at each humidity. The pass criteria is less than 0.002% change • 3—2% to 95% (2%, 10%, 20%, 30%, 40%, 50%, 60%, 70%, 80%, 90%, 95%) • a. Hold minimum of 5 mins and maximum of 60 minutes at each humidity. The pass criteria is less than 0.002% change • 4—95% to 2% (95%, 80%, 70%, 60%, 50%, 40%, 30%, 20%, 10%, 2%) • a. Hold minimum of 5 mins and maximum of 60 minutes at each humidity. The pass criteria is less than 0.002% change • 5—2% to 50% (2%, 10%, 20%, 30%, 40%, 50%) • a. Hold minimum of 5 mins and maximum of 60 minutes at each humidity. The pass criteria is less than 0.002% change High Pressure Liquid Chromatography (HPLC)
Dynamic Vapor Sorption (DVS) was performed using a DVS Intrinsic 1. The samples (12-31 mg) was loaded into a sample pan, suspended from a microbalance and exposed to a humidified stream of nitrogen gas. The sample was held for a minimum of 5 min at each level and only progressed to the next humidity level if there was <0.002% change in weight between measurements (interval: 60 seconds) or 240 min had elapsed. The following program was used: • 1—Equilibration at 50% RH • 2—50% to 2%. (50%, 40%, 30%, 20%, 10% and 2%) • 3—2% to 95% (2%, 10%, 20%, 30%, 40%, 50%, 60%, 70%, 80%, 90%, 95%) • 4—95% to 2% (95%, 80%, 70%, 60%, 50%, 40%, 30%, 20%, 10%, 2%) • 5—2% to 50% (2%, 10%, 20%, 30%, 40%, 50%) High Performance Liquid Chromatography (HPLC)

[9] = Competitive slurry experiments between free base solid forms
[10] = solvent DMAc, antisolvent cyclohexane
[11] = solvent DMAc, antisolvent water
[12] = cooling crystallization, ACN water (8:2 vol)
[13] = cooling crystallization, DMAc:ACN (2:8 vol)
[14] = cooling crystallization, DMAc:IPA (2:8 vol)
[15] = cooling crystallization, DMSO:ACN (2:8 vol)
[16] = cooling crystallization, DMSO:IPA (2:8 vol)
[17] = cooling crystallization, MeOH chloroform (1.88:1 vol), wet solid before drying

CO[C@]1(C(=O)N[C@@H](C)c2ccc(-n3cc(F)cn3)nc2)CC[C@H](c2nc(C)cc(Nc3cc(C)[nH]n3)n2)CC1 [Solid Form C, pralsetinib]
XRPD results of direct antisolvent experiments [1, 10]: phase sep.
XRPD results of direct antisolvent experiments [1, 11]: C + some B (wet)
XRPD results of direct antisolvent experiments ([1]; solvent THF, antisolvent water): oiling
XRPD results of reverse antisolvent experiments [1, 10]: phase sep.
XRPD results of reverse antisolvent experiments [1, 11]: C (wet)
XRPD results of reverse antisolvent experiments ([1]; solvent MeOH, antisolvent water): C (wet)
XRPD results of reverse antisolvent experiments ([1]; solvent THF, antisolvent heptane): am. (wet)
XRPD results of reverse antisolvent experiments ([1]; solvent THF, antisolvent water): C (wet)
XRPD Pattern (fast cool) ([2]; cooling crystallization, 1,4-dioxane): no solids (−20° C.)
XRPD Pattern (slow cool) ([2]; cooling crystallization, 1,4-dioxane, wet solid before drying): Q (wet)
XRPD Pattern (fast cool) ([2]; cooling crystallization, 1-propanol): no solids (−20° C.)
XRPD Pattern (slow cool) ([2]; cooling crystallization, 1-propanol, wet solid before drying): A (wet)
XRPD Pattern (fast cool) [2, 12]: no solids (−20° C.)
XRPD Pattern (slow cool) [2, 12]: no solids (−20° C.)
XRPD Pattern (fast cool) [2, 13]: no solids (−20° C.)
XRPD Pattern (slow cool) [2, 13]: no solids (−20° C.)
XRPD Pattern (fast cool) [2, 14]: no solids (−20° C.)
XRPD Pattern (slow cool) [2, 14]: no solids (−20° C.)
XRPD Pattern (fast cool) [2, 15]: no solids (−20° C.)
XRPD Pattern (slow cool) [2, 15]: no solids (−20° C.)
XRPD Pattern (fast cool) [2, 16]: no solids (−20° C.)
XRPD Pattern (slow cool) [2, 16]: no solids (−20° C.)
XRPD Pattern (fast cool) ([2]; cooling crystallization, EtOAc): no solids (−20° C.)
XRPD Pattern (slow cool) ([2]; cooling crystallization, EtOAc): very few solids
XRPD Pattern (fast cool) ([2]; cooling crystallization, EtOH): no solids (−20° C.)
XRPD Pattern (slow cool) ([2]; cooling crystallization, EtOH): no solids (−20° C.)
XRPD Pattern (fast cool) ([2]; cooling crystallization, IPA): no solids (−20° C.)
XRPD Pattern (slow cool) ([2]; cooling crystallization, IPA): A (wet)
XRPD Pattern (fast cool) ([2]; cooling crystallization, IPAc): no solids (−20° C.)
XRPD Pattern (slow cool) ([2]; cooling crystallization, IPAc): no solids (−20° C.)
XRPD Pattern (fast cool) [2, 17]: D (wet)
XRPD Pattern (slow cool) [2, 17]: D (wet)
XRPD Pattern (slow cool) ([2]; cooling crystallization, MeOH): no solids (−20° C.)
XRPD Pattern (fast cool) ([2]; cooling crystallization, THF): N (wet)
XRPD Pattern (slow cool) ([2]; cooling crystallization, THF, wet solid before drying): O + I (wet)
XRPD Pattern (fast cool) ([2]; cooling crystallization, acetone): no solids (−20° C.)
XRPD Pattern ([3]; DCM, solution 37 mg/mL solvent): amorphous*
XRPD Pattern ([3]; chloroform, solution 70 mg/mL solvent): amorphous*
behaviour upon drying at 50° C. [4]: converted to a dehydrate, Solid Form B
behaviour upon drying at 50° C. ([4]; listed as Pattern C): pattern B
behaviour upon drying at 50° C. ([4]; listed as solid form C): stable
solid form after heating to 150° C. [5]: converted to Pattern B (anhydrous); also recorded: converted to solid form B
XRPD Pattern ([6]; EtOH, 22-23° C., dried solids): A (dry)
XRPD Pattern ([6]; EtOH, 22-23° C., wet solids): A (wet)
XRPD Pattern ([6]; IPAc, 50° C.): A + C
XRPD Pattern ([6]; chloroform, 22-23° C., dried solids): H (dry)
XRPD Pattern ([6]; chloroform, 22-23° C., wet solids): H (wet)
stability on exposure to 75% relative humidity at 40° C. [7]: remained stable
stability on exposure to 75% relative humidity at 40° C. ([7]; listed as Pattern C): remained unchanged
water gained during the dynamic vapor sorption measurements [8]: 1.44%
hygroscopicity (words) ([8]; DVS): not as hygroscopic as pralsetinib free base in solid form A
DVS Water Mass Change (wt. %) ([8]; Table 3E): 1.29-1.44 wt. %
XRPD / form stability after DVS humidity cycling [8]: the same
XRPD / form stability after DVS humidity cycling ([8]; listed as Solid form C): remained stable
reversible mass change by DVS ([8]; between 2-95% relative humidity): about 1.4%
total mass change observed by DVS ([8]; humidity range not given): 1.4 wt. %
competitive slurry in acetone and isopropanol [9]: converted to solid form A
Competitive slurry MeOH: water (1:1 vol) at 23 and 50° C. ([9]; listed as Pattern C): C stable
Competitive slurry isopropanol, MeOH:MtBE ([9]; listed as Pattern C): C converts to A
